The subject of series [1] is LNCaP C4-2B. Put plainly: Downregulation of AR expression in human LNCaP C4-2B cells at 1.25 to 5 uM by Western blot analysis. In kind it is functional, cell-based. Conditions: dose 1.25-5 µM, time 24-72 hrs, TDE = time-dependent effect. Background: Immunoblotting shows a protein as a band on a membrane.
The subject of series [2] is CWR22R. Put plainly: Downregulation of AR-V7 expression in human 22Rv1 cells at 1.25 to 5 uM by Western blot analysis. To be noted: dose 1.25-5 µM, time 24-72 hrs, TDE = time-dependent effect. The format is functional, cell-based.
The subject of series [3] is CWR22R. Put plainly: Inhibition of colony formation in human 22Rv1 cells compound addition at every 3 days and measured after 14 days by crystal violet staining based assay. To be noted: dose 1.25-5 µM, time 14.0 day. In kind it is functional, cell-based.
Series [4] in a line: Cmax in ICR mouse at 10 mg/kg, po measured upto 24 hrs by LC-MS/MS analysis. The format is ADME, organism-based. Conditions: in vivo.
The subject of series [5] is LNCaP C4-2B. Put plainly: Downregulation of AR-V7 expression in human LNCaP C4-2B cells at 1.25 to 5 uM by Western blot analysis. The format is functional, cell-based. To be noted: dose 1.25-5 µM, TDE = time-dependent effect.
Series [6] has as its system LNCaP C4-2B. Briefly: Downregulation of AR-V7 expression in human LNCaP C4-2B cells incubated for 24 to 72 hrs by Western blot analysis. The format is functional, cell-based. Conditions: dose 1.25-5 µM, time 24-72 hrs.
In series [7] the test system is LNCaP C4-2B. Put plainly: Downregulation of AR-V7 expression in human LNCaP C4-2B cells incubated for 48 hrs by qRT-PCR analysis. In kind it is functional, cell-based. To be noted: dose 1.25-5 µM.
A short description of series [8]: Oral bioavailability in ICR mouse at 10 mg/kg measured upto 24 hrs by LC-MS/MS analysis. The format is ADME, organism-based. Conditions: in vivo.
Series [9] can be described thus: Clearance in ICR mouse at 3 mg/kg, iv measured upto 24 hrs by LC-MS/MS analysis. The format is ADME, organism-based. To be noted: in vivo.
Series [10] relates to CWR22R. Put plainly: Antitumor activity against human 22Rv1 cells xenografted in ip dosed NOD/SCID mouse assessed as tumor growth inhibition administered five times a week for 2 weeks and measured two times per week. The format is functional, organism-based. Conditions: dose 5-10 mg/kg. Background: A xenograft is tissue or cells of one species grown in another, often human tumour cells in immunodeficient mice.

Series [11] deals with LNCaP C4-2B. Briefly: Downregulation of AR expression in human LNCaP C4-2B cells at 1.25 to 5 uM incubated for 48 hrs by qRT-PCR analysis. The format is functional, cell-based. To be noted: dose 1.25-5 µM. (In general: Quantitative PCR measures a nucleic acid by following its amplification.)
Series [12] has as its system CWR22R. Put plainly: Downregulation of AR-V7 expression in human 22Rv1 cells incubated for 24 to 72 hrs by Western blot analysis. In kind it is functional, cell-based. To be noted: dose 1.25-5 µM, time 24-72 hrs.

The text below walks through data of ChEMBL document CHEMBL5537185, “Discovery of the First-in-Class RORγ Covalent Inhibitors for Treatment of Castration-Resistant Prostate Cancer” (J Med Chem, 2024).

By Cmax is commonly meant the highest concentration seen after dosing. In general, bioavailability refers to dose-corrected exposure relative to a reference, in per cent. Higher therefore signals much systemic uptake. In general, clearance refers to the volume of plasma or blood freed of the substance per unit of time. Read a low clearance as a low capacity for elimination. Turning to `C=CC(=O)Nc1ccccc1-c1ccc(NC(=O)Cc2ccc(S(=O)(=O)CC)cc2)cc1Cl`, the Activity entry was “Tde” in the series with LNCaP C4-2B [1]; “Tde” in the series on CWR22R [2]; “Tde” in the series with LNCaP C4-2B [5]; “Dose-Dependent Effect” in the series with LNCaP C4-2B [6]; “Dose-Dependent Effect” with LNCaP C4-2B [7]; “Dose-Dependent Effect” with CWR22R [10]. Further, the Activity result with LNCaP C4-2B [11] and in the series with CWR22R [12] was “Dose-Dependent Effect” throughout. Further, the inhibition result with CWR22R [3] is “Dose-Dependent Effect”. In [4], this compound yielded a Cmax of 270 ng/mL. The compound further displayed a bioavailability in series [8] of 12.7%. For the same compound, the clearance in [9] was determined as 86.8 mL/min/kg.
